In PMC11357990, “A first-in-class selective inhibitor of EGFR and PI3K offers a single-molecule approach to targeting adaptive resistance” (Nature Cancer, 2024):

Tests used:
Test in all cases: biochemical
Conditions in all cases: read-out: Binding / ================================================= / % Inhibition of Control Specific Binding
[1] = biological target: T1, CB1 (h) (agonist radioligand) (Homo sapiens, UniProt P21554)
T1 construct: gene CNR1

[2] = biological target: T2, beta 2 (h) (antagonist radioligand) (Homo sapiens, UniProt P07550)
T2 construct: gene ADRB2

[3] = biological target: T3, norepinephrine transporter (h) (antagonist radioligand) (Homo sapiens, UniProt P23975)
T3 construct: gene SLC6A2

[4] = biological target: T4, mu (MOP) (h) (agonist radioligand) (Homo sapiens, UniProt P35372)
T4 construct: gene OPRM1

[5] = biological target: T5, Estrogen ER alpha (h) (agonist radioligand) (Homo sapiens, UniProt P03372)
T5 construct: gene ESR1

[6] = biological target: T6, PPARgamma h) (agonist radioligand) (Homo sapiens, UniProt P37231)
T6 construct: gene PPARG

[7] = biological target: AR(h) (agonist radioligand) (Homo sapiens, UniProt P10275)
AR(h) (agonist radioligand), sequence (P10275 whole entry): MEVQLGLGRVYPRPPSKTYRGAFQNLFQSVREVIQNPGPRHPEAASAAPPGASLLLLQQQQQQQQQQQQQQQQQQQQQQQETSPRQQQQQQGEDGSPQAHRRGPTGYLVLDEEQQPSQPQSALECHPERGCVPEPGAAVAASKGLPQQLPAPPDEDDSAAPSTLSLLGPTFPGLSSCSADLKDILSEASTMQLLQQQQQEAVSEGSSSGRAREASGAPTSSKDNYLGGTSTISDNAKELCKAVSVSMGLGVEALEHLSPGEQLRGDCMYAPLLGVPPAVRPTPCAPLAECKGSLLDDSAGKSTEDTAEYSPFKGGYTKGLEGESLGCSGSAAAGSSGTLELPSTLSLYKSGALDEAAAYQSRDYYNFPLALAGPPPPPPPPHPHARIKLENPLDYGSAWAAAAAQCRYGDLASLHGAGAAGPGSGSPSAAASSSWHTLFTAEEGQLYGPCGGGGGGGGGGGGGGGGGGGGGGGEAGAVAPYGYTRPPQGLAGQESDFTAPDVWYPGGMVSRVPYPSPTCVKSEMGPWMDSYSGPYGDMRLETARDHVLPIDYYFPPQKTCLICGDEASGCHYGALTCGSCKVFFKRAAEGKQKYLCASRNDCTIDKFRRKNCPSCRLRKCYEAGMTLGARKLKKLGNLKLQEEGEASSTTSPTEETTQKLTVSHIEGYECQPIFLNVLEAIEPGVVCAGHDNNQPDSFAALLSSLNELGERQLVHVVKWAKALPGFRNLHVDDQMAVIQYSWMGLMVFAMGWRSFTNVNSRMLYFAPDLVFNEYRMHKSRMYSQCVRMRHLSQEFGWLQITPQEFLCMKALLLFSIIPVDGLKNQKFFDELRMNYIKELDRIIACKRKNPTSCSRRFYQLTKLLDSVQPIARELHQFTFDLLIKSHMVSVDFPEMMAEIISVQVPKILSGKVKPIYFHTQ

[8] = biological target: T7, MC4 (h) (agonist radioligand) (Homo sapiens, UniProt P32245)
T7 construct: gene MC4R

[9] = biological target: T8, M1 (h) (antagonist radioligand) (Homo sapiens, UniProt P11229)
T8 construct: gene CHRM1
T8 sequence (P11229 whole entry): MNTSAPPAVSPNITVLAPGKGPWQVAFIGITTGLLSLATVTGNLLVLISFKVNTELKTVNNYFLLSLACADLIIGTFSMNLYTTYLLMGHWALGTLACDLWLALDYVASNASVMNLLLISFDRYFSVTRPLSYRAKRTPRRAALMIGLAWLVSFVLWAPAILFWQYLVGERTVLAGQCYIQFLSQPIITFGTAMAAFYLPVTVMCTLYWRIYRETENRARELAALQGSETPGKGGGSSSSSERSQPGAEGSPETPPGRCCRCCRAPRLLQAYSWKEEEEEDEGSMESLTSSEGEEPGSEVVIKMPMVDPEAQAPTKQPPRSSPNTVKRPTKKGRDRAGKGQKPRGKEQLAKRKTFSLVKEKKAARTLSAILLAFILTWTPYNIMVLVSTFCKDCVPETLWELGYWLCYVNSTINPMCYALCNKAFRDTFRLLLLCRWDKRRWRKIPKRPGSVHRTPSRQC

[10] = biological target: T9, H1 (h) (antagonist radioligand) (Homo sapiens, UniProt P35367)
T9 construct: gene HRH1
T9 sequence (P35367 whole entry): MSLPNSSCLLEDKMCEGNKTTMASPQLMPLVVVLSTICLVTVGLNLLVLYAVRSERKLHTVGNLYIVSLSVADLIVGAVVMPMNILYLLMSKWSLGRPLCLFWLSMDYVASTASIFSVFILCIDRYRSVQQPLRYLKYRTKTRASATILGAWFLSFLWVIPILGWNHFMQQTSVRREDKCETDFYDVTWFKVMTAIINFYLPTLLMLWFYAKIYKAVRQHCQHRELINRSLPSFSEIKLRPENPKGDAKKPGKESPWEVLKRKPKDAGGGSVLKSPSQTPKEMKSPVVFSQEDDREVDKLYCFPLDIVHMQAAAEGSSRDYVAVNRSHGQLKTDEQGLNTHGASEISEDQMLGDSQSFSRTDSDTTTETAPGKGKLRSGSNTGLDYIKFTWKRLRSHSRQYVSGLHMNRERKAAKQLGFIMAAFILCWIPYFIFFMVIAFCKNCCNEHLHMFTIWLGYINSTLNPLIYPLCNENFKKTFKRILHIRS

[11] = biological target: T10, 5-HT1B (h) (antagonist radioligand) (Homo sapiens, UniProt P28222)
T10 construct: gene HTR1B

[12] = biological target: T11, alpha 1D (h) (antagonist radioligand) (Homo sapiens, UniProt P25100)
T11 construct: gene ADRA1D

[13] = biological target: T12, V1a (h) (agonist radioligand) (Homo sapiens, UniProt P37288)
T12 construct: gene AVPR1A

[14] = biological target: T13, GABAB(1b) (h) (antagonist radioligand) (Homo sapiens, UniProt Q9UBS5)
T13 construct: gene GABBR1
T13 sequence (Q9UBS5 whole entry): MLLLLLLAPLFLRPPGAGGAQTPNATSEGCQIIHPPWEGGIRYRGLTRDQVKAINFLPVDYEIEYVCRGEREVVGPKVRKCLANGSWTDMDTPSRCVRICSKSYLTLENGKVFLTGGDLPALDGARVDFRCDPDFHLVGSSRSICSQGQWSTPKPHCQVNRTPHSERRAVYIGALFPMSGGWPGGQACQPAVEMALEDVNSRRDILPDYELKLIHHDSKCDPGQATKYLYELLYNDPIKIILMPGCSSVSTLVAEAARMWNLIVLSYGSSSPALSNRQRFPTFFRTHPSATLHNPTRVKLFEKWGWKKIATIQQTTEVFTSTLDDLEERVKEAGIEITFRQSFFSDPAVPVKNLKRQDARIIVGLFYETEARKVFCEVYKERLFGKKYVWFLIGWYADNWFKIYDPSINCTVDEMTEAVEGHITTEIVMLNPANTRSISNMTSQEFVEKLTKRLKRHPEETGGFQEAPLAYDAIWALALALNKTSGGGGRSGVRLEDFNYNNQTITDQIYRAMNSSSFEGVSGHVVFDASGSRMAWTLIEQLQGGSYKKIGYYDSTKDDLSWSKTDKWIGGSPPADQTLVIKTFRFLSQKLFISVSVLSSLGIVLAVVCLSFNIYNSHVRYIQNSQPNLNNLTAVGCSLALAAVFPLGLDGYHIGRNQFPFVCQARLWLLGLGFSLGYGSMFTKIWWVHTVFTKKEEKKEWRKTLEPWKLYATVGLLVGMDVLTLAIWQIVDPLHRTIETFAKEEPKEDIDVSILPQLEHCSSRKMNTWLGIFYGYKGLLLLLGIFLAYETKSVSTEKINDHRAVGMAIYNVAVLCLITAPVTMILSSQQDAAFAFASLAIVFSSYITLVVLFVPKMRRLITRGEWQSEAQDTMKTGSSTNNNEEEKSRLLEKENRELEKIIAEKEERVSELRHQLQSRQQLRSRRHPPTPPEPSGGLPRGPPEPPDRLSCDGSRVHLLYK

[15] = biological target: T14, M4 (h) (antagonist radioligand) (Homo sapiens, UniProt P08173)
T14 construct: gene CHRM4

[16] = biological target: T15, alpha 2A (h) (antagonist radioligand) (Homo sapiens, UniProt P08913)
T15 construct: gene ADRA2A

[17] = biological target: T16, D2S (h) (agonist radioligand) (Homo sapiens, UniProt P14416)
T16 construct: gene DRD2

[18] = biological target: T17, 5-HT transporter (h) (antagonist radioligand) (Homo sapiens, UniProt P31645)
T17 construct: gene SLC6A4

[19] = biological target: T18, kappa (h) (KOP) (agonist radioligand) (Homo sapiens, UniProt P41145)
T18 construct: gene OPRK1

[20] = biological target: T19, alpha 1B (h) (antagonist radioligand) (Homo sapiens, UniProt P35368)
T19 construct: gene ADRA1B

[21] = biological target: T20, Y1 (h) (agonist radioligand) (Homo sapiens, UniProt P25929)
T20 construct: gene NPY1R

[22] = biological target: T21, 5-HT3 (h) (antagonist radioligand) (Homo sapiens, UniProt P46098)
T21 construct: gene HTR3A

[23] = biological target: T22, GABAA1 (h) (alpha 1,beta 2,gamma 2) (agonist radioligand) (Homo sapiens, UniProt P14867+P47870)
T22 construct: gene GABRA1

[24] = biological target: T23, N muscle-type (h) (antagonist radioligand) (Homo sapiens, UniProt P02708+P07510+Q07001)
T23 construct: gene CHRNA1
T23 sequence (P02708 whole entry): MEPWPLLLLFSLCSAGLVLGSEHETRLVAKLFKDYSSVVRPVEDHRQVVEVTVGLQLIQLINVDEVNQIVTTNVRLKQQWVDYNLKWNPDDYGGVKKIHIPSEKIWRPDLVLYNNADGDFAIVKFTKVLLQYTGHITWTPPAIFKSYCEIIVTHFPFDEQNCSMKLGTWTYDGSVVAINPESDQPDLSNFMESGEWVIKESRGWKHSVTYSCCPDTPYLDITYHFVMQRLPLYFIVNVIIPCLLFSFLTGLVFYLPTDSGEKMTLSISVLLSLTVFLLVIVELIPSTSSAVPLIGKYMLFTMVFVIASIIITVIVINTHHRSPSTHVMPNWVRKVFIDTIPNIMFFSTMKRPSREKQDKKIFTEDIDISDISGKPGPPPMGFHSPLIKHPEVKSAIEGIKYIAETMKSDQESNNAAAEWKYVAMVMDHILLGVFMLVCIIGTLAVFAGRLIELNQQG
T23 sequence (P07510 whole entry): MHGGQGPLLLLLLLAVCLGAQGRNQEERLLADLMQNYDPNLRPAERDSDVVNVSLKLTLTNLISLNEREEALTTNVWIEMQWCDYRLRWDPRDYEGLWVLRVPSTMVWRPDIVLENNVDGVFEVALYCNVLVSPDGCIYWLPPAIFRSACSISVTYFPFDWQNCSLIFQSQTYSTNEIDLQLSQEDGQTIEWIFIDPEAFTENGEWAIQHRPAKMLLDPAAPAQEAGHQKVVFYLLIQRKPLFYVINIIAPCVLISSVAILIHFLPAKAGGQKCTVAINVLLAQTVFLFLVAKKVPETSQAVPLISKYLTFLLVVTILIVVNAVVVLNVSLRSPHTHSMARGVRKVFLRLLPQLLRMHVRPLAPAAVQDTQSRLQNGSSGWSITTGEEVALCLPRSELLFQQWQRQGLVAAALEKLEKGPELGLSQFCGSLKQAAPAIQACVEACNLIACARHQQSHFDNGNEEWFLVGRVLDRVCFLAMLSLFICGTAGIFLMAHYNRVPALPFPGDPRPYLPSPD
T23 sequence (Q07001 whole entry): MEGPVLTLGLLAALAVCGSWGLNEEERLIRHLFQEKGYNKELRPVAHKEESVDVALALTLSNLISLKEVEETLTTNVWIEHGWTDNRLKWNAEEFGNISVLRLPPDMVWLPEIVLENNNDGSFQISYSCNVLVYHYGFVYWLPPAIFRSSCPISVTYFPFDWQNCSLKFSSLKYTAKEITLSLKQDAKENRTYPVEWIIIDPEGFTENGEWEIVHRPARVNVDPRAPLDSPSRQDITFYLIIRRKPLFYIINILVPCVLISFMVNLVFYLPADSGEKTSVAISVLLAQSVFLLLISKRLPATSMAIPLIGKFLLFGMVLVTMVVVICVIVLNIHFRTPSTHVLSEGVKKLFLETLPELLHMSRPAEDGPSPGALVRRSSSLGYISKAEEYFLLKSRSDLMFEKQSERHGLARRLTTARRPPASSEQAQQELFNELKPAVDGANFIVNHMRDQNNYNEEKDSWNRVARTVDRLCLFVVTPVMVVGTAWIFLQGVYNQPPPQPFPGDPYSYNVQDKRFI
T23 sequence (P11230 whole entry partner): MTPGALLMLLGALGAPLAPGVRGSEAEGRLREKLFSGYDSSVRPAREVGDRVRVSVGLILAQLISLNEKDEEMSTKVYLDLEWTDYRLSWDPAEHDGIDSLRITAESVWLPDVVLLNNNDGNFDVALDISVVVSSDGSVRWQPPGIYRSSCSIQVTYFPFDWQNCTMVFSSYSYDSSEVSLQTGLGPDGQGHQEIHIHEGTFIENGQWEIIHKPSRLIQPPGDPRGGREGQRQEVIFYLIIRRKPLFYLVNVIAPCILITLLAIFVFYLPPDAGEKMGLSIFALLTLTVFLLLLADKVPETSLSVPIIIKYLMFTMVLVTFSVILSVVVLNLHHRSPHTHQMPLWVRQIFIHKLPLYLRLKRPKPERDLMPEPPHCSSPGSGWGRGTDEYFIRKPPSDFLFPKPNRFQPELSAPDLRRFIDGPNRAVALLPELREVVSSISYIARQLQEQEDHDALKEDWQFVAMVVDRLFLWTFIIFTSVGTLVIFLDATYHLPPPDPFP

[25] = biological target: T24, alpha 1A (h) (antagonist radioligand) (Homo sapiens, UniProt P35348)
T24 construct: gene ADRA1A

[26] = biological target: T25, AT1 (h) (antagonist radioligand) (Homo sapiens, UniProt P30556)
T25 construct: gene AGTR1

[27] = biological target: T26, ETA (h) (agonist radioligand) (Homo sapiens, UniProt P25101)
T26 construct: gene EDNRA

[28] = biological target: T27, GR (h) (agonist radioligand) (Homo sapiens, UniProt P04150)
T27 construct: gene NR3C1

[29] = biological target: CXCR2 (IL-8B) (h) (agonist radioligand) (Homo sapiens, UniProt P25025)
[30] = biological target: T28, RARalpha (h) (agonist radioligand) (Homo sapiens, UniProt P10276)
T28 construct: gene RARA

Question: Which results are given for `C[C@@H](Nc1ncnc2ccc(-c3cnc(Cl)c(NS(C)(=O)=O)c3)cc12)c1ccccc1` [MTX-531, (R)-N-(2-chloro-5-(4-((1-phenylethyl)amino)quinazolin-6-yl)pyridin-3-yl)methane-sulfonamide]?
Answer: inhibition at 10 µM [1]: -2%; inhibition at 10 µM [2]: -6%; inhibition at 10 µM [3]: 19%; inhibition at 10 µM [4]: 25%; inhibition at 10 µM [5]: 6%; inhibition at 10 µM [6]: 48%; inhibition at 10 µM [7]: -1%; inhibition at 10 µM [8]: 1%; inhibition at 10 µM [9]: 22%; inhibition at 10 µM [10]: -7%; inhibition at 10 µM [11]: -21%; inhibition at 10 µM [12]: 17%; inhibition at 10 µM [13]: 2%; inhibition at 10 µM [14]: -3%; inhibition at 10 µM [15]: 5%; inhibition at 10 µM [16]: 5%; inhibition at 10 µM [17]: -4%; inhibition at 10 µM [18]: -1%; inhibition at 10 µM [19]: 7%; inhibition at 10 µM [20]: 1%; inhibition at 10 µM [21]: 0%; inhibition at 10 µM [22]: 10%; inhibition at 10 µM [23]: -5%; inhibition at 10 µM [24]: 6%; inhibition at 10 µM [25]: 9%; inhibition at 10 µM [26]: 4%; inhibition at 10 µM [27]: 1%; inhibition at 10 µM [28]: 3%; inhibition at 10 µM [29]: 4%; inhibition at 10 µM [30]: 4%
